# Laboratory results as given in patent publication US20100286061A1, “PLASMIN-INHIBITORY THERAPIES” (priority 2004, published 2010).
# “Also recorded” adds a separate entry of the source. Read-outs that look alike come from different tables or passages of the source. No end group written: not given here.
# Assays:
# [1] = system: SW-480 cells; test: Apoptosis (caspase 3/7 activity, FACS), SW-480; assay type: cell-based, human; settings: also FACS assay
# Procedure: (§1) Apoptosis was evaluated using an assay for detecting caspase 3/7 activity using caspase 3/7 substrate. Apoptosis was also not detected using a FACS assay.
# [2] = Pharmacokinetics of iodinated protein in normal mice; assay type: in vivo; settings: tail vein injection
# Procedure: (§2) Labeling: we used […] protein and the Iodogen (Pierce) method, ˜1.7 mCi. Purification: we used D-salt polyacrylamide column and collected fractions, with total recovery ˜90%. We pooled high yield fractions for injections. Mice: we injected […] via tail vein. One time point/animal; four animals/time point. We used the following time points: no PEG at 0, 7, 15, 30, and 90 min. PEG at 0, 7, 15, 30, and 90 min, 4, 8, 16, and 24 hrs. We analyzed total plasma counts, used HPLC on Superose 12 (stability), and analyzed biodistribution. Rabbits: we injected 80 mg/animal via left ear vein. Blood was drawn from the right ear at following time points: no PEG at 0, 7, 15, 30, 90 min, 4, 8, 16, 24, 48, 72, and 96 hrs. PEG at 0, 7, 15, 30, 90 min, 4, 8, 16, 24, 48, 72, 96, 120, 144, 168, and 192 hrs. We preformed the following analyses: total plasma counts and HPLC on Superose 12 (stability) at 48, 72, 96, 120, 144, 168, and 192 hrs.
# [3] = system: endothelial cells; test: in vitro endothelial tubulogenesis (tube formation) assay, cell type not specified; assay type: cell-based; settings: for inhibition of tubulogenesis / angiogenesis in vitro: qualitative
# Procedure: (§3) Tube formation assay: HUVECs were cultured on gelatin-coated culture dishes in RPMI medium. The cells (passage 2) were seeded at 8e4/well of a 96-well plate on collagen type I (1.5 mg/ml, SERVA) in their culture medium (EGM-2 complete medium supplemented with 10% FCS) and allowed to spread for 1 hour. The culture medium was then discarded and the cells were covered with a new layer of collagen type I (1.5 mg/ml, new preparation). […] Mouse endothelial cells (EC) (LEII cell line) were seeded at 2e4/well of a 96-well plate on GFR-Matrigel (BD) in their culture medium (IMDM supplemented with 10% FCS) in presence of a dose range of DX-1000 and incubated at 37° C./5% CO2 for 5 hours. Endothelial tube formation was assessed with an inverted photomicroscope (Analis). Microphotographs of the center of each well at low power (40×) were taken with a NIKON camera with the aid of imaging-capture software (NIKON). Tube formation in the microphotographs was quantitatively analyzed (total tube length) with METAVUE™ software (Universal Imaging Corporation). Tube formation by untreated HUVECs in full endothelial cell growth medium was used as a control. IC50 values were determined with SIGMAPLOT™.
# DX-1000 was also tested for its activity in an in vitro endothelial tubulogenesis assay (“tube formation assay” described in Methods.). […]
# [4] = system: plasmin-mediated pro-MMP-9 activation in HL-60 cells; test: Gelatin zymography of HL-60 conditioned media; assay type: cell-based; settings: for inhibition of plasmin-mediated pro-MMP-9 activation: HL-60 cells, gelatin zymography, 1 μM, 48 hours
# Procedure: (§4) Cell culture of tumor cell lines: HT-1080 (fibrosarcoma), and LNCaP (androgen-dependent prostate cancer) cell lines were grown to 80% confluence in Dulbecco's modified Eagle medium (DMEM) supplemented with 10% FCS, glutamine ([…]), sodium bicarbonate (2.1 g/l), ascorbic acid ([…]) and penicillin-streptomycin (P/S) (100 U/ml). LNCaP cells were stimulated with di-hydro-testosterone (DHT, 10 nM). Non-adherent HL-60 (acute myeloid leukemia) cell line was grown in RPMI medium supplemented with 20% FCS, glutamine 4 mM, sodium bicarbonate (1.5 g/l) and P/S (100 U/ml). Cultures were maintained at a cell concentration between 1e5 and 1e6/ml.
# Gelatin zymography: HL-60 cells were cultured in serum-free medium (Ultraculture medium). Different conditions were considered: with and w/o DX-1000 at 1 μM; with or without pro-MMP-9 activators (plasmin+pro-MMP-3). Cells were cultured at 37° C./5% CO2 for 48 hours. Aliquots of conditioned media (CM) were then collected, clarified by centrifugation, mixed with electrophoresis sample buffer without reducing agent, and applied to 10% acrylamide gels containing gelatin (1 mg/ml). Active recombinant gelatinases served as standard. Samples were resolved at 20 mA, washed in 2% Triton X-100 for 1 hour and incubated at 37° C. for 16 hours in activation buffer containing 50 mM Tris-HCl, pH 7.4, 0.2 M NaCl, 5 mM CaCl2. After staining with Coomassie brilliant blue R-250, the gelatinolytic activities were detected as clear bands against the blue background.
# [5] = system: SW480 cells; test: Soft agar colony formation; assay type: cell-based, human; settings: 0.1 to 50 μM
# Procedure: We also evaluated DX-1000 in an assay to measure the sensitivity of human tumors to drugs before progressing to in vivo studies. SW-480 cells are grown in vitro in soft agar, reducing cell movement and allowing individual cells to develop into cell clones that are identified as single colonies. 3,000 SW480 cells were seeded into each well of six well plates. Each treatment was run in triplicate. Five 4× images were taken from each well for quantification using the […]® software.
# [6] = Allometric extrapolation of stability to humans; settings: allometric extrapolations from mouse and rabbit
# Source text: By allometric extrapolations, we should expect a stability of 9 days in humans.
# [7] = system: Mouse endothelial cells (EC) (LEII cell line); test: Tube formation assay, mouse endothelial cells (LEII) on GFR-Matrigel; assay type: cell-based; settings: for IC50: total tube length, 5 hours
# Procedure: as §3
# [8] = system: HUVECs; test: Tube formation assay, HUVECs on collagen type I; assay type: cell-based, human; settings: for IC50: total tube length, 16-18 hours, read-out: IC50 tube formation, HUVEC
# Procedure: as §3
# [9] = Pharmacokinetics of iodinated protein in rabbits; assay type: in vivo; settings: rabbit, ear vein injection
# Procedure: as §2
# [10] = system: plasmin-activated MMP-9 activity; test: BIOTRAK assay kit, MMP-9 activity in HL60 conditioned media; assay type: cell-based; settings: 1 μM, HL60, two days of culture
# Procedure: In addition to gelatin zymography, we evaluated the plasmin inhibitors using the BIOTRAK® assay kit. HL60 were seeded at 4×10^5 cells/well (24 wells plate) in a serum free medium (UltraCulture medium). The day after, different conditions were evaluated: samples with and without activators of pro-MMP9 (Plasmin and pro-MMP-3) and samples with and without DX-1000 and 4-PEG-DX-1000 (1 μM). After two days of culture, conditioned media were collected an activity of MMP-9 was assessed using the BIOTRAK® assay kit. Assay time was approximately one hour under standard conditions. At a 1 μM concentration, DX-1000 and 4-PEG DX-1000 effected an approximately 68-70% reduction in plasmin-activated MMP-9 activity.
# [11] = system: HL-60 cells; test: Apoptosis (caspase 3/7 activity, FACS), HL-60; assay type: cell-based; settings: also FACS assay
# Procedure: as §1
# [12] = system: fibrinolysis; test: Thrombelastography (TEG); settings: 280-560 nM DX-1000
# [13] = prothrombin time (PT); settings: concentrations>5.6 μM
# [14] = target: human plasmin (Homo sapiens, UniProt P00747); test: plasmin inhibition (Ki); assay type: biochemical
# Chain of human plasmin (P00747 581-810 limits assumed): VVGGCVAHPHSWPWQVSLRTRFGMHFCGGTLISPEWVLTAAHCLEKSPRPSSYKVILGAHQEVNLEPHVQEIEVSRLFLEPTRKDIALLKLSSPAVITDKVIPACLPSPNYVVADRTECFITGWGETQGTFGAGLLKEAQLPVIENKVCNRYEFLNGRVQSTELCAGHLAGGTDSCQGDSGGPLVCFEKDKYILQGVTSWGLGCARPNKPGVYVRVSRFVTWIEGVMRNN
# Chain of human plasmin (P00747 97-580 partner limits assumed): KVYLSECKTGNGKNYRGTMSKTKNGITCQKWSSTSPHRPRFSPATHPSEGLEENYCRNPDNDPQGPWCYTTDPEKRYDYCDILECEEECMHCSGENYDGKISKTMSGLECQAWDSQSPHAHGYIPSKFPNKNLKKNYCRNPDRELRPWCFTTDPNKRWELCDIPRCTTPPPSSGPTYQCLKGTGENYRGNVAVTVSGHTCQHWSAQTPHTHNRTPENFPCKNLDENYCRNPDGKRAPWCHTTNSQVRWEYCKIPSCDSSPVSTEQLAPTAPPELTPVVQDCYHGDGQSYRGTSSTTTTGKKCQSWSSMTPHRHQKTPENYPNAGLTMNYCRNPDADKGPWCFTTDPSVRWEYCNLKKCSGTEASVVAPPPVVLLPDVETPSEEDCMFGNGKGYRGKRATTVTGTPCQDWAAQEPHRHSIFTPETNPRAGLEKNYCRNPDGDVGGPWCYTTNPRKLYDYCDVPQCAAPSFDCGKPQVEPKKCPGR
# [15] = system: platelet function; test: platelet function screening test
# [16] = activated partial thromboplastin time (APTT)
# [17] = system: clot lysis; test: clot lysis
# [18] = system: HT-1080 cells; test: Chemo-invasion through Matrigel, HT-1080 cells; assay type: cell-based
# Procedure: as §4
# (§5) Chemo-invasion: HT-1080 and LNCaP cells were seeded at 10^6/well in 24-well cluster plates and incubated overnight. They were then incubated in the presence of a dose range of DX-1000 for 24 hours. […] Chemo-invasion was assessed using Transwell cell culture chamber inserts (Becton Dickinson) with Growth Factor Reduced-[…]® (GFR-[…]®) coated filters. After trypsinization, cells were seeded in the upper part of the invasion chamber (1e4/insert). RPMI medium supplemented with 5% FCS and 1% BSA and NIH3T3 CM used as chemoattractants for HT-1080 and LNCaP cells, respectively. After 24 hours of incubation at 37° C., filters were removed from the chambers, stained, and the % of invading cells was evaluated. Each condition was performed in duplicate.
# [19] = system: HT-1080 cells; test: Cell migration: scraping assay and Boyden chamber assay without Matrigel; assay type: cell-based; settings: 1-10 μM in scraping assay
# Procedure: Scraping assay: HT-1080 cells were seeded at 2e6/well in 6-well plates in complete medium. […] Cell layers were then scraped with a plastic tip.
# The effect of DX-1000 on cell migration was evaluated using two different assays, the scraping assay and a Boyden chamber assay without Matrigel.
# [20] = Clauss fibrinogen assay; settings: concentrations>5.6 μM
# [21] = system: LNCaP cells; test: Chemo-invasion through Matrigel, LNCaP cells (DHT-stimulated); assay type: cell-based
# Procedure: as §4, §5
# [22] = global coagulation screening tests (haemostasis in vitro)
# [23] = DX-1000 1-10 nM, Matrigel or collagen type I
substance,measurement,setting,value
"4-PEG DX-1000: exemplary modified DX-1000 molecule that includes four PEG moieties (MHSFCAFKAETGPCRARFDRWFFNIFTRQCEEFIYGGCEGNQNRFESLEECKKMCTRD; cysteine pairing not given here; also: four PEG moieties, places not given here)",induction of apoptosis in SW-480 cells,[1],do not induce apoptosis
same,half-life,[2],13 h
same,inhibition of tubulogenesis / angiogenesis in vitro,[3],also inhibited tube formation
same,IC50,"[3]; read-out: IC50 tube formation, cell type not given",0.98 ± 1.25 nM
same,inhibition of plasmin-mediated pro-MMP-9 activation,[4],92%
same,colony formation by SW480 cells,[5],did not inhibit colony formation
same,expected stability in humans,[6],9 days
same,IC50,[7],15.8 nM
same,IC50,[8],8.3 nM
same,half-life,[9],59 h
same,reduction in plasmin-activated MMP-9 activity,[10],68-70%
same,induction of apoptosis in HL-60 cells,[11],do not induce apoptosis
DX-1000: Kunitz domain that inhibits human plasmin; framework region of human LACI; SEQ ID NO:22 or 23 (MHSFCAFKAETGPCRARFDRWFFNIFTRQCEEFIYGGCEGNQNRFESLEECKKMCTRD),induction of apoptosis in SW-480 cells,[1],do not induce apoptosis
same,fibrinolysis in thrombelastography (TEG),[12]; two subjects with upper normal values,inhibition of fibrinolysis
same,fibrinolysis in TEG with tPA,[12]; tPA,reduction in fibrinolysis
same,effect on prothrombin time (PT),[13],did not observe an effect
same,Ki,[14],0.088 nM
same,effects in platelet function screening test,[15],no clinically significant effects
same,APTT clotting times versus normal range,[16]; 1.4-5.6 μM,remained within the normal range
same,effect on activated partial thromboplastin time (APTT),[16]; higher doses (1.4-5.6 μM),weak dose-dependent effect
same,half-life,[2],0.45 h
same,efficiency at inhibiting tube formation compared with aprotinin,[3],at least as efficient as aprotinin
same,inhibition of tubulogenesis / angiogenesis in vitro,[3],decreased in vitro angiogenesis; also recorded: potent inhibitor of tubulogenesis in vitro
same,inhibition of plasmin-mediated pro-MMP-9 activation,[4],64%
same,MMP (gelatinase) expression and activation,[4]; qualitative,inhibited plasmin-mediated MMP activation; also recorded: down-regulates MMP expression and activation; also recorded: down-regulated efficiently the expression and activation of gelatinases
same,concentration at which inhibition of clot lysis was observed,[17],> 700 nM
same,concentrations effective at inhibiting invasion in vitro (HT-1080),[18],effective at nanomolar and sub-nanomolar concentrations
same,in vitro invasiveness of tumor cells (HT-1080),[18],decreased in vitro invasiveness of tumor cells; also recorded: decreases the in vitro invasiveness of tumor cells
same,potency in invasion assay compared with aprotinin (HT-1080),[18],more potent inhibitor than aprotinin
same,inhibition of invasion of HT-1080 through Matrigel,[18]; DX-1000 1 nM,inhibited
same,two-dimensional migration of HT-1080 cells in vitro,[19],did not inhibit migration; also recorded: does not inhibit
same,effect on Clauss fibrinogen assays,[20],did not observe an effect
same,colony formation by SW480 cells,[5],did not inhibit colony formation
same,concentrations effective at inhibiting invasion in vitro (LNCaP),[21],effective at nanomolar and sub-nanomolar concentrations
same,in vitro invasiveness of tumor cells (LNCaP),[21],decreased in vitro invasiveness of tumor cells; also recorded: decreases the in vitro invasiveness of tumor cells
same,potency in invasion assay compared with aprotinin (LNCaP),[21],more potent inhibitor than aprotinin
same,inhibition of DHT-stimulated invasion of LNCaPs through Matrigel,[21]; DX-1000 1 nM,inhibited
same,tube formation of mouse endothelial cells,[7]; [23],efficiently blocked tube formation
same,IC50,[7],16.6 nM
same,tube formation of human endothelial cells,[8]; [23],efficiently blocked tube formation
same,IC50,[8]; listed as DX-1000 (unmodified),1.39 nM
same,effects in global coagulation screening tests / haemostasis in vitro,[22],did not significantly influence haemostasis in vitro; also recorded: did not detect any clinically significant effects; also recorded: no clinically significant effects
same,half-life,[9],about 1 h
same,reduction in plasmin-activated MMP-9 activity,[10],68-70%
same,induction of apoptosis in HL-60 cells,[11],do not induce apoptosis
